Measurements from patent US4237139A, “4-(3-(4-Quinolyl)propyl)piperidines, their preparation and their use as medicines” (Pharmindustrie, priority 1976, dated 1980).
Like-named read-outs stand apart in the source and are kept apart here.

Columns and labels:
[1] = test system: uptake of serotonine by synaptosomes of the rat's brain; assay: Inhibition of the uptake of serotonine by synaptosomes of the rat's brain; type: biochemical; conditions: in vitro, read-out: 50% inhibiting dose I50, uptake of serotonine by synaptosomes
5-HTP-induced quivering = assay: Potentiation test of 5-hydroxytryptophan (5-HTP), quivering in mice; type: in vivo, CD1 (Charles River) male mice; conditions: for ED50: Mus musculus, sc, read-out: ED 50, dose giving an average indication of quivering equal to 1; for inherent effect (in the absence of 5-HTP): dose of 25 mg/kg, control product groups
Description: (2) Potentialing Effect of 5-HTP:
It is known that the administration of 5-HTP parenterally in mice causes, with large doses, a characteristic behavior, i.e. quivering, torsions of the trunk, displacement of the rear legs, shaking of the head and increased general motility. To show a potentiating power with respect to 5-HTP, the present inventors have therefore used to advantage one of the characteristic properties of the precursor of serotonine, i.e. quivering. The procedure used is inspired by that of C. […] Groups of 8 male mice were used. The chronological order of the test was as follows for the groups treated with both 5-HTP and the products according to the invention.
At time t=30 min., the product to the tested was injected subcutaneously (S.C.) in the form of a 9% aqueous solution of NaCl.
At time t=75 min., the quivering in each animal was measured using the following scale:
1=quivering of average intensity
The chronological order was the same for the "control 5-HTP" and "control product" groups except that, in the first case, a 9% aqueous solution of NaCl was injected in the S.C. manner instead of the product solution and, in the second case, a 9% aqueous solution of NaCl was injected in the I.P. manner instead of the 5-HTP solution. The "control product" groups received the same doses of the tested product as the groups treated with both 5-HTP and the product in order to discover any possible effect inherent in the product.
The number of points for each group was totalled and the average indication of quivering was determined.

[2] = target: benzodiazepine receptors in rat brain membranes; assay: Inhibition of specific ^3 H-diazepam binding to rat brain membranes; conditions: for Ki: read-out: Ki, Inhibition of Specific ^3 H-Diazepam Binding To Rat Brain Membranes, rat brain membranes, ^3 H-diazepam
[3] = Acute toxicity (LD50) in mice; conditions: mouse, in vivo
Experimental: The acute toxicities and symptomatologies of the compounds according to the present invention have been determined on CD1 (Charles River) male mice by I.V. and oral methods. The LD50's were calculated, after 3 days of observation, by the cumulative method of J. J. Reed & H. Muench, Amer. J. Hyg., 27, 493, 1938, which is relied on herein and the disclosure incorporated by reference.

in vivo = conditions: rat, iv
[4] = test system: ventricular arrhythmia caused by aconitine; assay: animal or person; conditions: Rattus norvegicus, iv, read-out: ED50 I.V., dose increasing by 50% the perfusion time of aconitine
[5] = test system: sleep induced by serotonine; assay: Potentiation of sleep induced by serotonine in chickens; type: in vivo, chicken
Experimental: The role of the cerebral serotonine in sleep is a well-known fact as reported by M. Jouvet and Coll., C. R. Acad. Sc.
Groups of 12 chickens were used, to which were administered intravenously serotonine at a dosage level of 0.1 mg/kg.

[6] = test system: vasoconstriction of the nasal mucous membrane; assay: Vascular action: potentiation of the vascular effects of serotonine in anaesthetized dog; type: in vivo
Experimental: The potentiation of the vascular effects of serotonine is shown according to the procedure of J. J. Loux, Arch. […] The modified method consists in injecting into the carotid of an anaesthetized dog increasing and cumulated doses of serotonine. […] This increase was measured by connecting the nasal sinus, hermetically isolated from outside, with a pressure gauge.

[7] = test system: uptake of serotonine by human blood platelets; assay: Inhibition of the uptake of serotonine by human blood platelets; type: cell-based; conditions: for IC50: Platelet, read-out: Inhibition of the Uptake of serotonine I50; for times less effective than its epimer as inhibitor of serotonine uptake: Example 7 vs Example 1, Example 9 vs Example 3
Description: It is known that the uptake of serotonine by the blood platelets is a good model or indication of the uptake of this amine by neurons [see J. TUOMISTO, J. Pharm., Pharmac., 26 92 (1974)]. When it is applied to the investigation of medicaments, a method which brings into play the blood platelets presents great interest because it makes it possible to use human cells, which enables the method to give a good anticipation of the effect of the products on human beings.
(§1) The capacity of the products for inhibiting the uptake of serotonine or for causing its release has been shown on human blood platelets according to J. L. DAVID et al. "Platelets Function and Thrombosis, a Review of Methods" p. 335 (Plenum Press, London, 1972).
(a) Inhibition of the uptake of serotonine
The results are expressed by a 50% inhibiting dose I50, which represents the product dose in micromoles per liter reducing the uptake of serotonine by 50%.

[8] = test system: release of serotonine by human blood platelets; assay: Release of serotonine from human blood platelets; type: cell-based; conditions: for activation at 5 µM / activation at 50 µM: Homo sapiens, Platelet, read-out: Percentage of increase of the release of serotonine; for release of serotonine compared with p-chloro amphetamine, in words / release of serotonine, in words: human blood platelets
Description: as §1
(b) Release of serotonine
The action of the products on the release of serotonine has been tested at two concentrations: 5×10^-6 mole per liter and 5×10^-5mole per liter.
The results obtained are expressed by a percentage of increase of the release of serotonine in comparison with the results obtained with the controls.

[9] = test system: ventricular arrhythmia caused by aconitine; conditions: aconitine test, rats
[10] = iv, I.V., Table 4 (toxicity; species not given), read-out: LD50 I.V.
[11] = po, Table 6, P.O., mice, 3 days of observation, read-out: LD50 P.O.
[12] = 5 × 10^-5 mole per liter, in comparison with controls
[13] = 5 × 10^-6 mole per liter, in comparison with controls

With `C=C[C@H]1CNCC[C@H]1CCCc1ccnc2ccccc12` [Example 2, 4(R)-[3-(4-quinolyl)propyl] 3(R)-vinyl piperidine] the IC50 [1] was 35 nM, the ED50 (5-HTP-induced quivering; product S.C., 5-HTP 150 mg/kg I.P., male mice) was 12 mg/kg and the “inherent effect (in the absence of 5-HTP)” value (5-HTP-induced quivering) was “did not have any inherent effect”. For the same molecule, the Ki [2] was 2500 nM, the LD50 at 72 h [3, 10] was 30 mg/kg and the LD50 at 72 h [3, 11] was 525 mg/kg. For the same molecule, the selectivity ratio (in vivo) was 2.5 and the ED50 [4] was 12 mg/kg.

With `CC(C)N(CCC(C(N)=O)(c1ccccc1)c1ccccn1)C(C)C` (stereo not drawn) [Disopyramide, reference compound] the LD50 at 72 h [3, 10] was 26 mg/kg, the selectivity ratio (in vivo) was 6.5 and the ED50 [4] was 4 mg/kg.

For `NCCc1c[nH]c2ccc(O)cc12` [serotonine, reference compound], the “chickens sent to sleep” value ([5]; serotonine 0.1 mg/kg I.V. alone) was 25% and the minimal effective dose ([6]; Canis lupus familiaris, serotonine into the carotid, increasing and cumulated doses, read-out: dose from which an increase of the total volume of sinus was observed) was no less than 0.0002 mg/kg.

For `CC(N)Cc1ccc(Cl)cc1` (stereo not drawn) [p-Chloro amphetamine, p-chloro amphetamine, reference compound], the IC50 ([7]; Homo sapiens) was 12000 nM, the activation at 5 µM [8] was 6% and the activation at 50 µM [8] was 51%.

With `C=C[C@@H]1CNCC[C@H]1CCCc1ccnc2ccc(OC)cc12` [Example 7, 4(R)-[3-(6-methoxy 4-quinolyl)propyl]3(S)-vinyl piperidine] the IC50 ([7]; Homo sapiens) was 1000 nM, the “times less effective than its epimer as inhibitor of serotonine uptake” value ([7]; human blood platelets) was 100 times and the activation at 5 µM [8] was 40%. The activation at 50 µM [8] was 78%, the “release of serotonine compared with p-chloro amphetamine, in words” value [8] was “even more effective than p-chloro amphetamine” and the “release of serotonine, in words” value [8] was “powerful agents for the release of serotonine”. For the same molecule, the LD50 at 72 h [3, 11] was 225 mg/kg.

For `CC[C@H]1CNCC[C@H]1CCCc1ccnc2ccc(OC)cc12` [Example 3, 4(R)-[3-(6-methoxy 4-quinolyl)propyl] 3(R)-ethyl piperidine], the IC50 [1] was 8 nM, the IC50 ([7]; human blood platelets) was 10 nM and the activation at 50 µM [8, 12] was 67%. The activation at 5 µM [8, 13] was 34%, the “release of serotonine compared with p-chloro amphetamine, in words” value [8] was “even more effective than p-chloro amphetamine” and the “release of serotonine, in words” value [8] was “powerful agents for the release of serotonine”. For the same molecule, the Ki [2] was 4500 nM, the LD50 at 72 h [3, 10] was 21 mg/kg and the LD50 at 72 h [3, 11] was 600 mg/kg. The “antiarythmic effectiveness compared with quinidine and disopyramide, in words” value [9] was “more effective than the reference products (quinidine and disopyramide)”, the selectivity ratio (in vivo) was 30 and the ED50 [4] was 0.7 mg/kg.

With `c1ccc2c(CCCC3CCNCC3)ccnc2c1` [Example 4, 4-[3-(4-quinolyl)propyl]piperidine] the Ki [2] was 3500 nM, the LD50 at 72 h [3, 10] was 42 mg/kg and the LD50 at 72 h [3, 11] was 600 mg/kg. It also gave a selectivity ratio (in vivo) of 2.8 and an ED50 [4] of 15 mg/kg.

With `CC[C@@H]1CNCC[C@H]1CCCc1ccnc2ccc(OC)cc12` [Example 9, 4(R)-[3-(6-methoxy 4-quinolyl)propyl]3(S)-ethyl piperidine] the IC50 ([7]; human blood platelets) was 100 nM, the “times less effective than its epimer as inhibitor of serotonine uptake” value ([7]; human blood platelets) was no less than 10 times and the activation at 50 µM [8, 12] was 69%. The activation at 5 µM [8, 13] was 30%, the “release of serotonine compared with p-chloro amphetamine, in words” value [8] was “even more effective than p-chloro amphetamine” and the “release of serotonine, in words” value [8] was “powerful agents for the release of serotonine”. For the same molecule, the Ki [2] was 5000 nM and the LD50 at 72 h [3, 11] was 200 mg/kg.

Work on `CC[C@H]1CNCC[C@H]1CCCc1ccnc2ccccc12` [Example 5, 4(R)-[3-(4-quinolyl)propyl] 3(R)-ethyl piperidine] yielded a Ki [2] of 8000 nM, an LD50 at 72 h [3, 10] of 22 mg/kg and an LD50 at 72 h [3, 11] of 600 mg/kg. For the same molecule, the “antiarythmic effectiveness compared with quinidine and disopyramide, in words” value [9] was “more effective than the reference products (quinidine and disopyramide)”, the selectivity ratio (in vivo) was 9.6 and the ED50 [4] was 2.3 mg/kg.

Work on `C=C[C@H]1C[N@@]2CC[C@H]1C[C@@H]2[C@@H](O)c1ccnc2ccc(OC)cc12` [Quinidine, reference compound] yielded an LD50 at 72 h [3, 10] of 70 mg/kg, a selectivity ratio (in vivo) of 9.3 and an ED50 [4] of 7.5 mg/kg.

For `C=C[C@H]1CNCC[C@H]1CCCc1ccnc2ccc(OC)cc12` [Example 1, 4(R)-[3-(6-methoxy 4-quinolyl)propyl] 3(R)-vinyl piperidine], the ED50 (5-HTP-induced quivering) was 14 mg/kg, the “inherent effect (in the absence of 5-HTP)” value (5-HTP-induced quivering) was “did not have any inherent effect” and the IC50 ([7]; Homo sapiens) was 10 nM. For the same molecule, the activation at 5 µM [8] was 7%, the activation at 50 µM [8] was 32% and the “chickens sent to sleep” value ([5]; product of Example 1 at 3 mg/kg I.V. + serotonine 0.1 mg/kg I.V.) was 60%. For the same molecule, the “potentiation of vascular effect of serotonine (pressure decrease measured by the gauge)” value ([6]; 1 μg/kg I.V., 0.05 μg/kg of serotonine) was “twice greater”, the LD50 at 72 h [3, 10] was 30 mg/kg and the LD50 at 72 h [3, 11] was 600 mg/kg. The “antiarythmic effectiveness compared with quinidine and disopyramide, in words” value [9] was “more effective than the reference products (quinidine and disopyramide)” and the ED50 [4] was 2 mg/kg.

`CN(C)CCCN1c2ccccc2CCc2ccccc21` [Imipramine, reference compound] showed an IC50 ([7]; Homo sapiens) of 400 nM, an activation at 5 µM [8] of 3% and an activation at 50 µM [8] of 13%. For the same molecule, the “Ki, Inhibition of Specific ^3 H-Diazepam Binding To Rat Brain Membranes” value [2] was “inactive”.
